Results from PubChem BioAssay (NCI).
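Test compounds were applied to cells in 96-well plates for 48 hours at 5 doses. Definition used: TGI = concentration required for complete inhibition of growth.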

Columns and labels:
Assay in all cases: NCI anticancer screen, dose series, 48 h
MCF7 breast = test system: MCF7 breast
OVCAR-5 ovarian = test system: OVCAR-5 ovarian
SF-295 CNS = test system: SF-295 CNS
A549 NSCLC = test system: A549 NSCLC
HT29 colon = test system: HT29 colon
EKVX NSCLC = test system: EKVX NSCLC
SR leukemia = test system: SR leukemia
SN12C renal = test system: SN12C renal
SNB-75 CNS = test system: SNB-75 CNS
NCI-H522 lung = test system: NCI-H522 lung
HOP-62 NSCLC = test system: HOP-62 NSCLC
MDA-N = test system: MDA-N
M14 melanoma = test system: M14 melanoma
IGROV1 ovarian = test system: IGROV1 ovarian
A498 renal = test system: A498 renal
SK-OV-3 ovarian = test system: SK-OV-3 ovarian
CAKI-1 renal = test system: CAKI-1 renal
ACHN renal = test system: ACHN renal

CCN(CC)CCn1c2cc3c(cc2c(=O)c2cccnc21)OCO3
TGI (MCF7 breast): > 10 µM
TGI (OVCAR-5 ovarian): > 10 µM
TGI (SF-295 CNS): > 10 µM
TGI (A549 NSCLC): > 10 µM
TGI (HT29 colon): > 10 µM
TGI (EKVX NSCLC): > 10 µM
TGI (SR leukemia): > 10 µM
TGI (SN12C renal): > 10 µM
TGI (SNB-75 CNS): > 10 µM
TGI (NCI-H522 lung): > 10 µM
TGI (HOP-62 NSCLC): > 10 µM
TGI (MDA-N): > 10 µM
TGI (M14 melanoma): > 10 µM
TGI (IGROV1 ovarian): > 10 µM
TGI (A498 renal): > 10 µM
TGI (SK-OV-3 ovarian): > 10 µM
TGI (CAKI-1 renal): > 10 µM
TGI (ACHN renal): > 10 µM

Cc1cc(S(=O)(=O)NC2=NC(c3ccccc3)c3ccccc3N2)c(S)cc1Cl (configuration not stated)
TGI (MCF7 breast): > 100 µM
TGI (OVCAR-5 ovarian): > 100 µM
TGI (SF-295 CNS): > 100 µM
TGI (A549 NSCLC): > 100 µM
TGI (HT29 colon): > 100 µM
TGI (EKVX NSCLC): > 100 µM
TGI (SR leukemia): 58.3 µM
TGI (SN12C renal): > 100 µM
TGI (SNB-75 CNS): > 100 µM
TGI (NCI-H522 lung): > 100 µM
TGI (HOP-62 NSCLC): > 100 µM
TGI (MDA-N): > 100 µM
TGI (M14 melanoma): > 100 µM
TGI (IGROV1 ovarian): > 100 µM
TGI (A498 renal): > 100 µM
TGI (SK-OV-3 ovarian): > 100 µM
TGI (CAKI-1 renal): > 100 µM
TGI (ACHN renal): > 100 µM

COc1ccc2oc(=O)c3c(c2c1C)OC(C)(C)C=C3
TGI (MCF7 breast): > 100 µM
TGI (OVCAR-5 ovarian): > 100 µM
TGI (SF-295 CNS): > 100 µM
TGI (A549 NSCLC): > 100 µM
TGI (HT29 colon): > 100 µM
TGI (EKVX NSCLC): > 100 µM
TGI (SR leukemia): > 100 µM
TGI (SN12C renal): > 100 µM
TGI (SNB-75 CNS): > 100 µM
TGI (NCI-H522 lung): > 100 µM
TGI (HOP-62 NSCLC): > 100 µM
TGI (MDA-N): > 100 µM
TGI (M14 melanoma): > 100 µM
TGI (IGROV1 ovarian): > 100 µM
TGI (A498 renal): > 100 µM
TGI (SK-OV-3 ovarian): > 100 µM
TGI (CAKI-1 renal): > 100 µM
TGI (ACHN renal): > 100 µM

COc1ccc([C@H]2C=C(c3cc(F)c(Cl)cc3Cl)NC(=S)N2)cc1
TGI (MCF7 breast): > 100 µM
TGI (OVCAR-5 ovarian): > 100 µM
TGI (SF-295 CNS): > 100 µM
TGI (A549 NSCLC): > 100 µM
TGI (HT29 colon): 80.5 µM
TGI (EKVX NSCLC): > 100 µM
TGI (SR leukemia): > 100 µM
TGI (SN12C renal): 57.1 µM
TGI (SNB-75 CNS): 66.5 µM
TGI (NCI-H522 lung): > 100 µM
TGI (HOP-62 NSCLC): > 100 µM
TGI (MDA-N): 33.2 µM
TGI (M14 melanoma): > 100 µM
TGI (IGROV1 ovarian): > 100 µM
TGI (A498 renal): 79.2 µM
TGI (SK-OV-3 ovarian): > 100 µM
TGI (CAKI-1 renal): > 100 µM
TGI (ACHN renal): > 100 µM

CC[C@H](C)C1=C(O)[N@+]2([O-])Oc3ccc(-c4c(O)c(O)c(-c5ccc(OC(C)=O)cc5)c(OC(C)=O)c4OC(C)=O)cc3O[C@]2([C@@H](C)CC)C(=O)N1O
TGI (MCF7 breast): > 50 µM
TGI (OVCAR-5 ovarian): > 50 µM
TGI (SF-295 CNS): > 50 µM
TGI (A549 NSCLC): > 50 µM
TGI (HT29 colon): > 50 µM
TGI (EKVX NSCLC): > 50 µM
TGI (SR leukemia): 33 µM
TGI (SN12C renal): > 50 µM
TGI (NCI-H522 lung): 18 µM
TGI (HOP-62 NSCLC): > 50 µM
TGI (MDA-N): > 50 µM
TGI (M14 melanoma): > 50 µM
TGI (IGROV1 ovarian): 18.6 µM
TGI (A498 renal): > 50 µM
TGI (SK-OV-3 ovarian): > 50 µM
TGI (CAKI-1 renal): > 50 µM
TGI (ACHN renal): > 50 µM

CN1CCCC1=NC#N
TGI (MCF7 breast): > 100 µM
TGI (OVCAR-5 ovarian): > 100 µM
TGI (SF-295 CNS): > 100 µM
TGI (A549 NSCLC): > 100 µM
TGI (HT29 colon): > 100 µM
TGI (EKVX NSCLC): > 100 µM
TGI (SR leukemia): > 100 µM
TGI (SN12C renal): > 100 µM
TGI (SNB-75 CNS): > 100 µM
TGI (NCI-H522 lung): > 100 µM
TGI (HOP-62 NSCLC): > 100 µM
TGI (MDA-N): > 100 µM
TGI (M14 melanoma): > 100 µM
TGI (IGROV1 ovarian): > 100 µM
TGI (A498 renal): > 100 µM
TGI (SK-OV-3 ovarian): > 100 µM
TGI (CAKI-1 renal): > 100 µM
TGI (ACHN renal): > 100 µM

O=C1CSC(c2ccc(Cl)cc2)N1c1ccc(-c2ccc(-n3c(-c4ccccc4)nc4ccccc4c3=O)cc2)cc1 (configuration not stated)
TGI (MCF7 breast): > 100 µM
TGI (SF-295 CNS): > 100 µM
TGI (A549 NSCLC): > 100 µM
TGI (HT29 colon): 41.5 µM
TGI (EKVX NSCLC): > 100 µM
TGI (SR leukemia): > 100 µM
TGI (SN12C renal): > 100 µM
TGI (SNB-75 CNS): 26.6 µM
TGI (NCI-H522 lung): > 100 µM
TGI (HOP-62 NSCLC): > 100 µM
TGI (MDA-N): > 100 µM
TGI (M14 melanoma): > 100 µM
TGI (IGROV1 ovarian): > 100 µM
TGI (A498 renal): > 100 µM
TGI (SK-OV-3 ovarian): > 100 µM
TGI (CAKI-1 renal): > 100 µM
TGI (ACHN renal): > 100 µM

CN(C)/C=C(\C(=O)c1ccccc1)n1nc(-c2ccccc2)cc1-c1ccccc1
TGI (MCF7 breast): > 10 µM
TGI (OVCAR-5 ovarian): > 10 µM
TGI (SF-295 CNS): > 10 µM
TGI (A549 NSCLC): > 10 µM
TGI (HT29 colon): > 10 µM
TGI (EKVX NSCLC): > 10 µM
TGI (SR leukemia): > 10 µM
TGI (SN12C renal): > 10 µM
TGI (NCI-H522 lung): > 10 µM
TGI (HOP-62 NSCLC): > 10 µM
TGI (MDA-N): > 10 µM
TGI (M14 melanoma): > 10 µM
TGI (IGROV1 ovarian): > 10 µM
TGI (A498 renal): > 10 µM
TGI (SK-OV-3 ovarian): > 10 µM
TGI (CAKI-1 renal): > 10 µM
TGI (ACHN renal): > 10 µM

N#Cc1c(N)c2c(c(-c3ccccc3)c1-c1ccccc1)C(=O)N(NC(=O)c1ccccc1)C2=O
TGI (MCF7 breast): > 100 µM
TGI (OVCAR-5 ovarian): > 100 µM
TGI (SF-295 CNS): > 100 µM
TGI (A549 NSCLC): > 100 µM
TGI (EKVX NSCLC): > 100 µM
TGI (SR leukemia): > 100 µM
TGI (SN12C renal): > 100 µM
TGI (SNB-75 CNS): > 100 µM
TGI (NCI-H522 lung): > 100 µM
TGI (MDA-N): > 100 µM
TGI (M14 melanoma): > 100 µM
TGI (IGROV1 ovarian): > 100 µM
TGI (A498 renal): > 100 µM
TGI (CAKI-1 renal): > 100 µM
TGI (ACHN renal): > 100 µM

CCOC(=O)CCC(NC(=O)c1ccc(Nc2nc3ccccc3n3cccc23)cc1)C(=O)OCC (configuration not stated)
TGI (MCF7 breast): > 100 µM
TGI (OVCAR-5 ovarian): > 100 µM
TGI (SF-295 CNS): 71.1 µM
TGI (A549 NSCLC): > 100 µM
TGI (HT29 colon): > 100 µM
TGI (EKVX NSCLC): > 100 µM
TGI (SR leukemia): > 100 µM
TGI (SNB-75 CNS): 53.6 µM
TGI (NCI-H522 lung): 60 µM
TGI (HOP-62 NSCLC): 54.2 µM
TGI (MDA-N): > 100 µM
TGI (M14 melanoma): > 100 µM
TGI (IGROV1 ovarian): > 100 µM
TGI (A498 renal): > 100 µM
TGI (SK-OV-3 ovarian): 50.1 µM
TGI (CAKI-1 renal): > 100 µM
TGI (ACHN renal): 46 µM

O=C1c2cscc2C(=O)C1(O)O
TGI (MCF7 breast): > 100 µM
TGI (OVCAR-5 ovarian): > 100 µM
TGI (SF-295 CNS): > 100 µM
TGI (A549 NSCLC): > 100 µM
TGI (HT29 colon): > 100 µM
TGI (EKVX NSCLC): > 100 µM
TGI (SR leukemia): 49.3 µM
TGI (SN12C renal): 36.3 µM
TGI (NCI-H522 lung): 40.3 µM
TGI (HOP-62 NSCLC): > 100 µM
TGI (MDA-N): > 100 µM
TGI (M14 melanoma): 45.5 µM
TGI (IGROV1 ovarian): > 100 µM
TGI (A498 renal): > 100 µM
TGI (SK-OV-3 ovarian): > 100 µM
TGI (CAKI-1 renal): 83.7 µM
TGI (ACHN renal): > 100 µM

CC(C)[Si](OC1=C(C(=O)N(C)c2ccccc2Cl)CCCC1)(C(C)C)C(C)C
TGI (MCF7 breast): 27.2 µM
TGI (OVCAR-5 ovarian): 26.3 µM
TGI (SF-295 CNS): 20.9 µM
TGI (A549 NSCLC): 14.3 µM
TGI (HT29 colon): 32.3 µM
TGI (EKVX NSCLC): 28 µM
TGI (SR leukemia): 24.1 µM
TGI (SNB-75 CNS): 27.5 µM
TGI (NCI-H522 lung): 19.2 µM
TGI (HOP-62 NSCLC): 34.6 µM
TGI (MDA-N): 34.3 µM
TGI (M14 melanoma): 30.2 µM
TGI (IGROV1 ovarian): 31.4 µM
TGI (A498 renal): 31 µM
TGI (SK-OV-3 ovarian): 28.5 µM
TGI (CAKI-1 renal): 27.3 µM
TGI (ACHN renal): 29.5 µM

CC(=O)c1nc2ccccc2n1CC(=O)c1ccc(Cl)cc1
TGI (MCF7 breast): > 100 µM
TGI (SF-295 CNS): 43.7 µM
TGI (A549 NSCLC): 32.4 µM
TGI (HT29 colon): 35.4 µM
TGI (EKVX NSCLC): > 100 µM
TGI (SR leukemia): > 100 µM
TGI (SN12C renal): > 100 µM
TGI (NCI-H522 lung): 23 µM
TGI (HOP-62 NSCLC): 25.2 µM
TGI (MDA-N): > 100 µM
TGI (M14 melanoma): > 100 µM
TGI (IGROV1 ovarian): 26.1 µM
TGI (A498 renal): > 100 µM
TGI (SK-OV-3 ovarian): > 100 µM
TGI (CAKI-1 renal): > 100 µM
